How the values were obtained:
[1] = system: 3T3-L1 cells; test: insulin-based mouse 3T3-L1 adipogenesis assay (AdipoRed); format: cell-based; settings: 10 μM compound
Experimental: The probe Compound D1 was also profiled in an insulin-based mouse 3T3-L1 adipogenesis assay. In this assay, 3T3-L1 pre-adipocytes are grown to 2-days post-confluence in DMEM with 10% bovine calf serum, and then induced to differentiate to adipocytes following stimulation for 2 days with an induction cocktail containing 1 μg/ml insulin, 1 μM dexamethasone, and 0.5 mM 3-isobutyl-1-methylxanthine in DMEM containing 10% fetal bovine serum (FBS).^44 2 days later, the media is replaced with DMEM with 10% FBS and 1 μg/ml insulin, and after 2 additional days, the media is replaced with DMEM with 10% FBS for 2 additional days, at which point adipogenesis is measured using the AdipoRed Adipogenesis Assay Reagent from Lonza, according to the manufacturer's instructions. In brief, the assay reagent is added to the wells containing cells, where it partitions into the fat droplets of differentiated adipocytes, and emits fluorescence at 572 nm that can be detected with a plate-reader. To test the effect of probe Compound D1, cells were plated into 48-well plates and allowed to grow to confluence. Cells were then treated with 10 μM Compound D1 or 0.025% DMSO, and after 2 days induced to differentiate in the presence of 10 μM Compound D1 or 0.025% DMSO. Fresh compound or DMSO was added during each media replacement.

[2] = hepatic microsomal stability, mouse liver microsomes; format: in vitro ADME
Text: In the course of this investigation many compounds with similar potencies in the LMPTP (OMFP) assay were found. In order to determine which compound would be the best candidate for in vivo studies, an abbreviated ADME panel was ran on these compounds, a tabulation of the most interesting data on this set of compounds is illustrated in Table 3 below. From the hepatic microsome stability data the candidate selected for in vivo studies was Compound D1.
The microsomal stability assay is commonly used to rank compounds according to their metabolic stability. This assay addresses the pharmacologic question of how long the parent compound will remain circulating in plasma within the body.

[3] = rodent pharmacokinetics in male C57BL/6 mice (IV, PO, IP); format: in vivo, mouse
Experimental: The inventors also examined ML400 (also described herein as MLS-0472870 or Compound D1) for its rodent pharmacokinetics. The probe Compound D1 was profiled in Male C57BL/6 Mice, with n=3 for each group studied (IV, IP and PO arms). The formulation used was 1.00 mg/mL in DMSO:Tween80:Water=5:5:90, which gave a clear solution. […] Enterohepatic circulation was also observed for this compound. This compound has acceptable parameters for future in vivo studies (see Table 4 and FIG. 13).

[4] = male, C57BL/6, mouse, in vivo, iv, […]
[5] = mouse, in vivo, male C57BL/6 mice, IP, 9.69 mg/kg
[6] = mouse, in vivo, male C57BL/6 mice, PO, 29.6 mg/kg

Hepatic Microsome Stability % Remaining @ 1 hr ([2]; Mouse microsomes, 1 hr): 48.75% | microsomal stability ([2]; mouse liver microsomes after 1 hour): moderate stability | enterohepatic circulation ([3]; male C57BL/6 mice): observed | Cl (mL/min/kg) ([3]; male C57BL/6 mice, IV, […]): Low clearance | Vdss (L/kg) ([3]; male C57BL/6 mice, IV, […]): large volume of distribution | clearance [3, 4]: 25.8 mL/min/kg | half-life [3, 4]: 39.6 h | Vd ([3]; male, C57BL/6, mouse, in vivo, iv, […], read-out: Vdss): 83.1 L/kg | AUC(0-inf) [3, 5]: 4520 ng·h/mL | Cmax [3, 5]: 365 ng/mL | Tmax [3, 5]: 0.33 h | half-life [3, 5]: 32.5 h | AUC(0-inf) [3, 6]: 6380 ng·h/mL | Cmax [3, 6]: 3210 ng/mL | Tmax [3, 6]: 3.33 h | half-life [3, 6]: 29.2 h
SMILES: COc1ccc(-c2cc(NCCCN3CCCCC3)c3ccccc3n2)cc1 [Compound D1, 2-(4-methoxyphenyl)-N-(3-(piperidin-1-yl)propyl)quinolin-4-amine]
3T3-L1 adipogenesis [1]: completely abolished

From US10626094B2 (La Jolla Institute of Allergy & Immunology, priority 2014, dated 2020)
